Experiments:
[1] = test system: NEAT1, MALAT1; assay: Levels of other lncRNAs in neurons by qPCR (specificity); format: cell-based, mouse
[2] = test system: C57BL/6 mice; assay: Intranasal administration to C57BL/6 mice: brain uptake and toxicity; format: in vivo, mouse; conditions: 10 nM in 10 μl
Experimental: Brain tissue was harvested after about 48 h.
(§1) Separately, NPG567 or other compounds can be administered by intranasal delivery (APP/PS1 beginning at either 6 months of age (preventive) or 12 months of age (therapeutic); dose repeated alternate days; Tg4510 beginning at either 3 months of age (preventive) or 8 months of age (therapeutic); alternate days. See FIG. 25B for a schematic of the experimental protocol. The treatment efficacy for the two modes of delivery at timeframes as shown in FIGS. 25A and 25B and described herein. Intranasal delivery is a noninvasive method that bypasses the blood-brain barrier and delivers the drug to the brain and the spinal cord, thereby avoiding any systemic side effects. […] Brain tissue was harvested after about 48 h.

[3] = test system: GAS5 lncRNA; assay: γ-AApeptide OBOC combinatorial library screen with fluorescein tagged GAS5 oligonucleotide, hits validated in vitro; format: binding; conditions: fluorescein tagged GAS5 oligonucleotide probe, tRNA as control
From the text: The interaction between UPF1 and GAS5 was disrupted using a γ-AApeptide based one-bead-one-compound (OBOC) combinatorial library (Wu H, Li Y, Bai G, Niu Y, Qiao Q, Tipton J D, Cao C, Cai J. gamma-AApeptide-based small-molecule ligands that inhibit Abeta aggregation. Chemical communications. 2014; 50(40):5206-8. doi: 10.1039/c3cc46685j. PubMed PMID: 24158240). The γ-AApeptide is a peptidomimetic with side chains for chemical diversity and are resistant to proteolytic cleavage. To screen the compound library, a probe that contained a fluorescein tagged oligonucleotide was synthesized. The probe spanned 30 nucleotides on either side of the UAA sequences on GAS5 (FIG. 13) The fluorescein was attached to the 5′end (beginning of oligonucleotide probe sequence). The nucleotide sequence within the GAS5 IncRNA that the oligonucleotide probe binds to can be about 100% identical to […] (SEQ ID NO: 4), which is nucleotides 541 to 651 of SEQ ID NO: 1. The underlined regions indicate the UAA that is the target regions. As such, the oligonucleotide probe was designed to flank both sides of these target regions.
The length of oligonucleotide was required to maintain stem loop structure to specifically bind to GAS5. Further, we modeled the oligonucleotide (RNAfold software) to evaluate its folding and verified absence of any unwanted secondary structures. The backbone was modified by 2′-MOE (2′-O-methoxyethylribose), which protects it from degradation and a fluoroscein tag was attached to the 5′end to aid in screening. The oligonucleotide probe was used to screen 160,000 molecules in the combinatorial library using tRNA as control (as tRNA has similar stem loop secondary structures). […] The compound having a structure according to Formula 3 was determined to have a chemical formula of C68H92N10O9S, a mass of about 1224.6769, and a molecular weight of 1225.6050. The compound having a structure according to Formula 14 was determined to have a chemical formula of C63H85N9O13S, a mass of about 1207.5988, and a molecular weight of 1208.4830. […]

[4] = test system: GAS5; assay: Hippocampal GAS5 levels after intranasal administration to C57BL/6 mice; format: in vivo, mouse; conditions: 10 nM in 10 μl, about 48 h
From the text: as §1

[5] = test system: HT22 cells; assay: Toxicity of side-chain derivatives to HT22 cells (preliminary data)
[6] = test system: GAS5; assay: Uptake and GAS5 levels in primary neuronal cells (NC) by qPCR; format: cell-based, mouse; conditions: 10 nM
[7] = test system: GAS5; assay: GAS5 levels in DM adipocytes by SYBR Green qPCR; format: cell-based, human; conditions: 20 nM, 24 hours
Experimental: DM adipocytes were treated with G5-1397 (20 nM) for about 24 hours. GAS5 levels were measured using SYBR Green qPCR.
Depletion of GAS5 decreases glucose uptake: Adipose tissue is the primary target for insulin-mediated glucose uptake. […] To maintain reproducibility over a larger number of experiments, adipose stem cells derived from normal or diabetic patients were purchased from Zenbio (BMI 20-24, Nondiabetic HbA1C 5.9 (hereafter referred as NDM); T2DM HbA1c 8.5 (hereafter referred as DM)). The adipose stem cells (ASC) were differentiated in vitro to mature adipocytes and used in experiments. GAS5 siRNA (10 nM, Ambion 332778, validated; scrambled siRNA as control) was transfected in NDM pre-adipocytes for 48 h, differentiated to mature NDM adipocytes for 8 days and knockdown confirmed by GAS5 SYBR Green qPCR. We determined the effect of GAS5 depletion on glucose uptake by NDM adipocytes. Cells were serum starved, 10 nM insulin was added to cells for 30 minutes and [^3H]-deoxy-2-D-Glucose uptake was measured. Results indicated a decrease in glucose uptake in GAS5 depleted NDM adipocytes ***p<0.001, highly significant using two-tailed students t-test.
Compound NPG5-C86 can increase GAS5 levels in diabetic adipocytes: Next, it was evaluated whether NPG5-C86 could stabilize GAS5 in diabetic adipocytes. […] GAS5 levels were measured using SYBR Green qPCR.

Row | SMILES | levels of other lncRNAs NEAT1, MALAT1 present in neurons ([1]; 10 nM, NC) | specificity ([1]; in neurons) | toxicity to the animals ([2]; C57BL/6 mice) | blood-brain barrier crossing and brain uptake ([2]; fluorescein-labeled, 14 week C57BL/6 mice, brain harvested after about 48 h) | ability to bind GAS5 (identified and validated from library screen) [3] | GAS5 levels in the hippocampus [4] | toxicity to HT22 cells [5] | uptake by NC ([6]; primary neuronal cells) | GAS5 levels in NC ([6]; qPCR, control set as reference) | GAS5 levels in DM adipocytes [7]
1 | NCCCC[C@H]1CN(C(=O)CCc2ccccc2)CC(=O)N[C@@H](CCC(=O)O)CN(CC(N)=O)C(=O)CCSCc2ccc(cc2)C(=O)N[C@@H](CCC(=O)O)CN(C(=O)CCC(=O)O)CC(=O)N[C@@H](CCCCN)CN(C(=O)CCCN)CC(=O)N1 [NPG567] | did not affect | shows specificity | not toxic to the animals | crossed the blood-brain barrier and taken up by the brain | can bind GAS5 | increased GAS5 levels in the hippocampus | not toxic to HT22 cells | efficiently taken up by NC | increase GAS5 | –
2 | CC(C)C[C@H]1CN(C(=O)CC2CC2)CC(=O)N[C@@H](CCCCN)CN(C(=O)CCc2ccccc2)CC(=O)N[C@@H](Cc2ccccc2)CN(CC(N)=O)C(=O)CCSCc2ccc(cc2)C(=O)N[C@@H](Cc2ccccc2)CN(C(=O)CC2CC2)CC(=O)N1 [Formula G5-1397] | – | – | – | – | able to bind GAS5 | – | – | – | – | substantially increases GAS5 levels

Source: patent publication US11214835B1, “Methods and compositions for diagnosis and management of neurodegerative diseases” (UNIVERSITY OF SOUTH FLORIDA, priority 2017, dated 2022)
